Data as given in patent publication US12213501B2, “Methods for modifying high intensity sweetener glycosides” (Optibiotix Limited, priority 2018, dated 2025).
Marks after values point to notes of the source that are not given here.

Tests used:
trained sensory panel = assay: Sensory profiling (QDA) of sweetener samples by trained sensory panel; format: in vivo, human; settings: for Mean Rating (0-100): sweetness as agreed by the panel; for Sweet Taste Intensity: Table 3, concentration printed 0.032 g/L (steviol glycosides samples) or 0.024 g/L (others); for ES (equivalent sucrose concentration): from mean sweetness rating via Sweetness=15.5 (sucrose)-22.5; for ES (equivalent sucrose concentration) / Potency: concentration 0.032 or 0.024 g/L; for Bitter Taste / Cardboard/Stale Flavour / Cooked sugar flavour / Cooling Sensation / Crusty Bread Flavour / Liquorice Flavour / Metallic / Overall Strength of Off Taste/Flavour / Perfume Flavour / Salty Taste / Sour Taste / Sweet Taste / Bitter Aftertaste / Cooling Aftereffect / Liquorice Aftereffect / Sweet Aftertaste: mean rating, line scale 0-100, Stevia samples 0.32 g/L, Reb and Mogroside samples 0.24 g/L water; for Bitter Aftertaste / Cooling Aftereffect / Liquorice Aftereffect / Sweet Aftertaste: scored after 30 second delay; for Potency: sweet potency relative to sucrose; for liquorice flavour compared between sweeteners: unmodified sweeteners
[1] = reported; cited from earlier work
[2] = Initial tasting against sucrose standards; format: in vivo; settings: all samples at 0.32 g/L, compared with Steviol glycosides
Description: For the initial tasting sucrose standards were prepared at 4, 6, 8 and 10% (w/v) sucrose. Aiming for 8% sucrose equivalence all HIS and enzyme modified samples were also prepared at 0.32 g/L. From the initial tasting it had been concluded that the sucrose standard range needed to be reduced to 2, 4, 6 and 8% as the 10% sample was too extreme.

[3] = Reported bitterness of steviol glycosides and sucrose equivalence (literature); format: in vivo, human
Text: Often sweeteners are compared to sucrose at 8% sucrose equivalent (Prakash, G. E. DuBois, J. F. Clos, K. L. Wilkens, L. E. Fosdick. (2008). Development of rebiana, a natural, non-caloric sweetener. Food and Chemical Toxicology. Volume 46, Issue 7, Pages S75-S82. Previous literature (Caroline Hellfritsch, Anne Brockhoff, Frauke Stähler, Wolfgang Meyerhof, and Thomas Hofmann (2012). Human Psychometric and Taste Receptor Responses to Steviol Glycosides. Journal of Agricultural and Food Chemistry 2012 60 (27), 6782-6793) has shown bitterness of steviol glycosides to be most obvious at around 1000 μM which for Rebaudioside A would be 0.97 g/L, equivalent to 24% sucrose. However, solutions of 100 μM are also bitter which for Rebaudioside A would be 0.097 g/L, equivalent to 2.4% sucrose. Therefore, it was decided to test solutions at equivalent sweetness levels above 2% sucrose to ensure that both sweetness and bitterness could be evaluated in levels applicable to final application.

[4] = modified high intensity sweetener compared to un-modified

Structure (SMILES)	effect of enzyme modification on sweetness (trained sensory panel; CGTase modified vs unmodified)	Sweet Taste Intensity (trained sensory panel)	ES (equivalent sucrose concentration) (trained sensory panel) [%]	Bitter Taste (trained sensory panel)	Cardboard/Stale Flavour (trained sensory panel)	Cooked sugar flavour (trained sensory panel)	Cooling Sensation (trained sensory panel)	Crusty Bread Flavour (trained sensory panel)	Liquorice Flavour (trained sensory panel)	Metallic (trained sensory panel)	Overall Strength of Off Taste/Flavour (trained sensory panel)	Perfume Flavour (trained sensory panel)	Salty Taste (trained sensory panel)	Sour Taste (trained sensory panel)	Sweet Taste (trained sensory panel)	Bitter Aftertaste (trained sensory panel)	Cooling Aftereffect (trained sensory panel)	Liquorice Aftereffect (trained sensory panel)	Sweet Aftertaste (trained sensory panel)	Potency (trained sensory panel)	also measured
OC[C@H]1O[C@@](CO)(O[C@H]2O[C@H](CO)[C@@H](O)[C@H](O)[C@H]2O)[C@@H](O)[C@@H]1O [Sucrose]																					Mean Rating (0-100) (trained sensory panel; sucrose standard 1, 2.0 % w/v): 10; Mean Rating (0-100) (trained sensory panel; sucrose standard 2, 4.0 % w/v): 35; Mean Rating (0-100) (trained sensory panel; sucrose standard 3, 6.0 % w/v): 75; Mean Rating (0-100) (trained sensory panel; sucrose standard 4, 8.0 % w/v): 100
C[C@H](CC[C@@H](O[C@@H]1O[C@H](CO[C@@H]2O[C@H](CO)[C@@H](O)[C@H](O)[C@H]2O)[C@@H](O)[C@H](O)[C@H]1O[C@@H]1O[C@H](CO)[C@@H](O)[C@H](O)[C@H]1O)C(C)(C)O)[C@H]1CC[C@@]2(C)[C@@H]3CC=C4[C@@H](CC[C@H](O[C@@H]5O[C@H](CO[C@@H]6O[C@H](CO)[C@@H](O)[C@H](O)[C@H]6O)[C@@H](O)[C@H](O)[C@H]5O)C4(C)C)[C@]3(C)[C@H](O)C[C@]12C [Mogroside, Mogroside V]	reduced the sweetness	47.3	4.5	7.3^c	0.7^c	3.2^ab	2.6^ab	3.3^a	21.4^a	3.4^b	25.6^cd	0.3^a	0.8^a	1.2^b	47.3^b	4.6^c	1.6^ab	10.8^bc	28.2^b	188	effect of enzymatic modification on liquorice flavour (trained sensory panel; CGTase modified vs unmodified): significantly reduced; Bitter taste: reduction % (trained sensory panel; [4]): 0%; Bitter taste: reduction ratio (trained sensory panel; [4]): 0; Liquorice taste: reduction % (trained sensory panel; [4]): 41%; Liquorice taste: reduction ratio (trained sensory panel; [4]): 1.7; Metallic: reduction % (trained sensory panel; [4]): 67%; Metallic: reduction ratio (trained sensory panel; [4]): 3; liquorice flavour compared between sweeteners (trained sensory panel): equivalent in liquorice flavour; sweet potency relative to sucrose [1]: ~400 ×; sweetness in initial tasting [2]: considered sweeter than the Steviol glycosides
C=C1C[C@@]23CC[C@H]4[C@@](C)(CCC[C@@]4(C)C(=O)O[C@@H]4O[C@H](CO)[C@@H](O)[C@H](O)[C@H]4O)[C@@H]2CC[C@]1(O[C@@H]1O[C@H](CO)[C@@H](O)[C@H](O[C@@H]2O[C@H](CO)[C@@H](O)[C@H](O)[C@H]2O)[C@H]1O[C@@H]1O[C@H](CO)[C@@H](O)[C@H](O)[C@H]1O)C3 [Reb, Rebaudioside A]	reduced the sweetness	60.3	5.3	10.8^bc	0.6^c	3.9^a	4.7^a	0.5^bc	24.2^a	2.7^bc	31.9^bc	0.4^a	1.6^a	0.9^b	60.3^a	6.5^bc	2.1^a	11.6^bc	34.8^a	223	sweetness compared between sweeteners (trained sensory panel; Rebaudioside A 0.24 g/L vs Steviol glycosides 0.32 g/L and Mogroside V 0.24 g/L): significantly more sweet; liquorice flavour compared between sweeteners (trained sensory panel): equivalent in liquorice flavour; sweet potency relative to sucrose [1]: ~250 ×; equivalent sucrose ([3]; 100 μM = 0.097 g/L): 2.4 % sucrose; equivalent sucrose ([3]; 1000 μM = 0.97 g/L): 24 % sucrose; sweetness in initial tasting [2]: considered sweeter than the Steviol glycosides
